Data set [1] in a line: Venetoclax observed clinical PK. To be noted: human, plasma, oral. Format: in vivo.
For data set [2], the system named is CYP3A4. To be noted: multiple doses of rifampicin 600 mg q.d.; cited from earlier work.
The conditions of data set [3]: cited from earlier work.
Data set [4] deals with T1, OAT3 (Homo sapiens, UniProt Q8TCC7).
T1 sequence (Q8TCC7 1-542): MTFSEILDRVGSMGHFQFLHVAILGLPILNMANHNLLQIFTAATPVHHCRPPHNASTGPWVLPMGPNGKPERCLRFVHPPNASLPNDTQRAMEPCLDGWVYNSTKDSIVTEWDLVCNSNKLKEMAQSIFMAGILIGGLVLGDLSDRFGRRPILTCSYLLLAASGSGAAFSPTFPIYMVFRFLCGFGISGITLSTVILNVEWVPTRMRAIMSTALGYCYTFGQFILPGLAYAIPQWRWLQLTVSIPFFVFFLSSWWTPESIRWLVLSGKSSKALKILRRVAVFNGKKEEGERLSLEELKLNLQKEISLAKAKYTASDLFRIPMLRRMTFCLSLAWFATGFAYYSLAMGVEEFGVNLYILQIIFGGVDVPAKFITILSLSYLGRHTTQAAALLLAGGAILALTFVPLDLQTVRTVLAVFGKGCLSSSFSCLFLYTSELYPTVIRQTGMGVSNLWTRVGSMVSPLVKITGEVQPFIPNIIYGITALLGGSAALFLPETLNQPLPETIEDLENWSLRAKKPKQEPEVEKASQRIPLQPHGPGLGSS
To be noted: cited from earlier work.

Data set [5] relates to CYP3A4. Conditions: human, in vivo, 600 mg, cited from earlier work.
Data set [6] has as its system OAT3. To be noted: read-out: OAT3 Ki; lowest reported value; cited from earlier work.
The test system of another data set is CYP1A2 mRNA. Briefly: CYP induction in cultured human hepatocytes.
The test system of another data set is NTCP. Conditions: hepatic uptake, model; cited from earlier work.
In a further data set the test system is OATP1B1/1B3. Conditions: hepatic uptake, model; cited from earlier work.
The test system of the next data set is CYP2C19 mRNA. Put plainly: CYP induction in cultured human hepatocytes. To be noted: all three hepatocyte cultures.
The target of the next data set is T2, OCT2 (Homo sapiens, UniProt O15244).
T2 sequence (O15244 1-555): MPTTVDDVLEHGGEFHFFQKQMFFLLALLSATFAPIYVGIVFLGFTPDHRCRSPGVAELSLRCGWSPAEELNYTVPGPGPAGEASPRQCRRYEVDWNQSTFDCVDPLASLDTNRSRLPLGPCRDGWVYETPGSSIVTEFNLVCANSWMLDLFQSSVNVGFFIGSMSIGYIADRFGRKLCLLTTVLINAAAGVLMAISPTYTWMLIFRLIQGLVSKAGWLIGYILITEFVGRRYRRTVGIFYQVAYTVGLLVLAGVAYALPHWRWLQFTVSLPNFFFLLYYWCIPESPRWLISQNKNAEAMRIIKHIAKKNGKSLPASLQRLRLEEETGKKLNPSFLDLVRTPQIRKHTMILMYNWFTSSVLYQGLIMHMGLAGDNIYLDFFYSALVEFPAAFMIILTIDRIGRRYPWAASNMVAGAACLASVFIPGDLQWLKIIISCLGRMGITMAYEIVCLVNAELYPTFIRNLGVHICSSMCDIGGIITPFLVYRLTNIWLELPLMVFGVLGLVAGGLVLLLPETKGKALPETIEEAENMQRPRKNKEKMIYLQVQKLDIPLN
Briefly: Transporter inhibition in transfected HEK293 cells. Format: cell-based.

The test system of data set [7] is CYP3A4 mRNA. Briefly: in vitro. Conditions: human.
The next data set has as its system CYP2C9 mRNA. Briefly: CYP induction in cultured human hepatocytes.
For a further data set, the system named is CYP2B6 mRNA. Put plainly: CYP induction in cultured human hepatocytes.
The next data set addresses T3, OATP1B3 (Homo sapiens, UniProt Q9NPD5).
T3 sequence (Q9NPD5 1-702): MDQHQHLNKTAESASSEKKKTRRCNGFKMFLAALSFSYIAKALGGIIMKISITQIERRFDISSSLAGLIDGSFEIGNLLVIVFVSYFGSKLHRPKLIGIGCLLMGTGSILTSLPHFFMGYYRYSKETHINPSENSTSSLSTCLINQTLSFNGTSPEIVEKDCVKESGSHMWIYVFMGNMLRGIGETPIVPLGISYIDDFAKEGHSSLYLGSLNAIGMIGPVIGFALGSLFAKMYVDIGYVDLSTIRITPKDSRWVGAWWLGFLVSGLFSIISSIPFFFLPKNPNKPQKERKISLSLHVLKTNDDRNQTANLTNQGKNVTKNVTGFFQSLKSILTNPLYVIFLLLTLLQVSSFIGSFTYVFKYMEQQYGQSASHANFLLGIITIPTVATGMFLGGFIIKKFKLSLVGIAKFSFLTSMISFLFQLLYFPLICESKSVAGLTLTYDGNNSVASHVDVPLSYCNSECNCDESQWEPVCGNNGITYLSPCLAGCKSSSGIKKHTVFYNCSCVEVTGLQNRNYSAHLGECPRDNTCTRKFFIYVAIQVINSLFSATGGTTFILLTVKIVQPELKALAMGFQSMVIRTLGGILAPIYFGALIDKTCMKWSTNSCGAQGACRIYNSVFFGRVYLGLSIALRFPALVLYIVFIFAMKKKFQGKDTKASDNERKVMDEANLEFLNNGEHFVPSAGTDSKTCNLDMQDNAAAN
Briefly: Transporter inhibition in transfected HEK293 cells. Format: cell-based.

In data set [8] the test system is CYP3A4. To be noted: ivosidenib PBPK model; cited from earlier work.
For data set [9], the target named is T1, OAT3. Put plainly: Transporter inhibition in transfected HEK293 cells. Format: cell-based.
The test system of data set [10] is CYP3A4. To be noted: patients, cited from earlier work.
Another data set deals with CYP2C8 mRNA. Put plainly: CYP induction in cultured human hepatocytes.
A further data set addresses T4, OAT1 (Homo sapiens, UniProt Q4U2R8).
T4 sequence (Q4U2R8 1-563): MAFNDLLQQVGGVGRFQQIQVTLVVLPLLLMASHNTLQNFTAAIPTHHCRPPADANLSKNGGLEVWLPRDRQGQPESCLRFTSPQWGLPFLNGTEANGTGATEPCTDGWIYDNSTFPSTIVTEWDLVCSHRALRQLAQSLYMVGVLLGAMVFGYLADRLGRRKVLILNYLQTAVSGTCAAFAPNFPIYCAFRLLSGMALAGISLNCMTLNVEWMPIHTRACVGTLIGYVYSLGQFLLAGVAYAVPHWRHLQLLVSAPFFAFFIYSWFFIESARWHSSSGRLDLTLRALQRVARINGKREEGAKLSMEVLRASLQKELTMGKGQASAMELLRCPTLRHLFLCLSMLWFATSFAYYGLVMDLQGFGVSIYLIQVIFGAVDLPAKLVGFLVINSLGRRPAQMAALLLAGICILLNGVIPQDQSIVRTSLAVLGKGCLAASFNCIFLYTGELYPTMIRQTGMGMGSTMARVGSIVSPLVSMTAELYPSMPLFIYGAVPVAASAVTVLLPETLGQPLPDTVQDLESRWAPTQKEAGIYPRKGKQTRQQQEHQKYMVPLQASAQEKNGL
Put plainly: Transporter inhibition in transfected HEK293 cells. Format: cell-based.

The subject of data set [11] is CYP3A4. Briefly: PBPK. On the set-up: species or system human. Conditions: based on simulated midazolam results.
The test system of data set [12] is CYP3A4 mRNA. Conditions: human, hepatocytes.
For a further data set, the target named is human P‐gp (Homo sapiens, UniProt P08183). Put plainly: P-gp inhibition assay, bidirectional digoxin permeability in Caco-2 cells. Format: cell-based. In general terms: Caco-2 monolayers are a common model of the intestinal barrier.
human P‐gp, sequence (P08183 whole entry): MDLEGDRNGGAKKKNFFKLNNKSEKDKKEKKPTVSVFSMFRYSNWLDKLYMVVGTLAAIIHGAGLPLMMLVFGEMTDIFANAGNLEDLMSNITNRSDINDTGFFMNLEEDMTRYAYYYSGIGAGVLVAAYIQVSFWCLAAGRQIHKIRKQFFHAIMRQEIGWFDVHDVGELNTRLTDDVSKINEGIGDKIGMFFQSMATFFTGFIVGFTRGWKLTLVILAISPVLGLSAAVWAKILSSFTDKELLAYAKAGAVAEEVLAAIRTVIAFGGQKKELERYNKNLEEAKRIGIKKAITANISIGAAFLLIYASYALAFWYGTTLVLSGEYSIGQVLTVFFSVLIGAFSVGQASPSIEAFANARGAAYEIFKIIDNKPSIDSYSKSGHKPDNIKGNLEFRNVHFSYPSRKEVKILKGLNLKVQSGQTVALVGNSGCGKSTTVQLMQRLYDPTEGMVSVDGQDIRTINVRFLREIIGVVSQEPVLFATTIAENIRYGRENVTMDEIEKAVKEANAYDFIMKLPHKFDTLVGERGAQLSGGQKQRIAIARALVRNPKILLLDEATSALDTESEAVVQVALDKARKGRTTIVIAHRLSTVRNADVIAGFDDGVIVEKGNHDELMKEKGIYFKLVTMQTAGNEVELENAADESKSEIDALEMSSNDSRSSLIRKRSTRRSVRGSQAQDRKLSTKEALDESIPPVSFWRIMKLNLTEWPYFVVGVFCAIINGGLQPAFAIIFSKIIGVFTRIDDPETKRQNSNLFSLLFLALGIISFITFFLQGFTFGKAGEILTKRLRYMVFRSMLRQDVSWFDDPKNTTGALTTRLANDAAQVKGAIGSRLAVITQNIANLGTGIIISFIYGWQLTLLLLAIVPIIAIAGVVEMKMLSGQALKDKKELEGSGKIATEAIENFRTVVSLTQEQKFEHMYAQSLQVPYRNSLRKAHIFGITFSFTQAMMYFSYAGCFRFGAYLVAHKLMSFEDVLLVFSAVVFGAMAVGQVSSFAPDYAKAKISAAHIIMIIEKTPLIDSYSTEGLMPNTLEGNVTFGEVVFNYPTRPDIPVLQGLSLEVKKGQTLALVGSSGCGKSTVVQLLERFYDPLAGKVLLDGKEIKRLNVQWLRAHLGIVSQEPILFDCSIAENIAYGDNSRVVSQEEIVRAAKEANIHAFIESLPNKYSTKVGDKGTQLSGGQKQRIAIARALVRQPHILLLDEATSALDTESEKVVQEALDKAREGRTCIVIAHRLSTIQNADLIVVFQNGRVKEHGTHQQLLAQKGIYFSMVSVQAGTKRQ
For another data set, the target named is T5, OATP1B1 (Homo sapiens, UniProt Q9Y6L6).
T5 sequence (Q9Y6L6 1-691): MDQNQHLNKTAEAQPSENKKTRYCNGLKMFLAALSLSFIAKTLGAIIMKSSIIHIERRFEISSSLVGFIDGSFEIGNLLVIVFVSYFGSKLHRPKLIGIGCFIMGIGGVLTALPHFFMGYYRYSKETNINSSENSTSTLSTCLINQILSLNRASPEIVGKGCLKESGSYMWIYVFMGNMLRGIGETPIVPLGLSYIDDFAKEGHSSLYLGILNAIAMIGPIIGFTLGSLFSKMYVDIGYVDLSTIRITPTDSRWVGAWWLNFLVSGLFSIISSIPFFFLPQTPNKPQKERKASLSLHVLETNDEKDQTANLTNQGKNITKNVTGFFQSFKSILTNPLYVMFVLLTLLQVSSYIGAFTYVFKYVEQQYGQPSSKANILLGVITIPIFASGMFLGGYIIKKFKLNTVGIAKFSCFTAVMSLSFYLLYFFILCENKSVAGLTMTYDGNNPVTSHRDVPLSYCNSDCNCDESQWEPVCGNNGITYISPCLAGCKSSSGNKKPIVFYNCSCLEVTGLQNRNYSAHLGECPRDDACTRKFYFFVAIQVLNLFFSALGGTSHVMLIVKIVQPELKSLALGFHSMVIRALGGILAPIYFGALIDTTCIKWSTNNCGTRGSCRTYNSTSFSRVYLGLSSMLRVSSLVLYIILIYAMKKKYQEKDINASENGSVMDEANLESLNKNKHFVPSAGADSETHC
Briefly: Transporter inhibition in transfected HEK293 cells. Format: cell-based.

Where [13] appears, read: human, cultured human hepatocytes.

In the case of `CC1(C)CCC(CN2CCN(c3ccc(C(=O)NS(=O)(=O)c4ccc(NCC5CCOCC5)c([N+](=O)[O-])c4)c(Oc4cnc5[nH]ccc5c4)c3)CC2)=C(c2ccc(Cl)cc2)C1` [Venetoclax], in [1], the Vd lay in the range of 0.36 to 1.78 L/kg. Further, in the data set on CYP3A4 [2], the “decrease of venetoclax AUC” value is reported as roughly 80% and the “decrease of venetoclax Cmax” value was ~ 70%. Besides, in data set [3] (patients), the “estimated mean Vss/F from clinical data” value is listed as 3.67 L/kg. In addition, in data set [3] (venetoclax), the “observed mean CL/F” value is reported as 14.9 L/h.

As for `CN(Cc1cnc2nc(N)nc(N)c2n1)c1ccc(C(=O)N[C@@H](CCC(=O)O)C(=O)O)cc1` [Methotrexate], the “reported methotrexate AUCR with probenecid” value at OAT3 [4] is listed as 1.57 fold.

Turning to `Cc1ncc2n1-c1ccc(Cl)cc1C(c1ccccc1F)=NC2` [Midazolam], the “reduction of midazolam AUC, i.v.” value in the data set on CYP3A4 [5] (iv) is reported as 51%. The “reduction of midazolam AUC, oral” value in the data set with CYP3A4 [5] (po) is given as 92%.

With `CCCN(CCC)S(=O)(=O)c1ccc(C(=O)O)cc1` [probenecid], the Ki (in general, the dissociation constant of the complex between target and ligand, obtained from inhibition or displacement) with OAT3 [6] was […].

As for `COc1ccc2[nH]c([S+]([O-])Cc3ncc(C)c(OC)c3C)nc2c1` (stereo not drawn) [omeprazole, reference compound], in the data set with CYP1A2 mRNA (prototypical inducer (positive control)), the “increase in CYP1A2 mRNA levels” value stood at 104 ± 97 fold.

As to `CC(C)c1nc(N(C)S(C)(=O)=O)nc(-c2ccc(F)cc2)c1/C=C/[C@@H](O)C[C@@H](O)CC(=O)O` [Rosuvastatin], in the data set on NTCP, the “relative contribution of NTCP to uptake of rosuvastatin” value is listed as 35%. Also, the “relative contribution of OATP1B1/1B3 to uptake of rosuvastatin” value in the data set with OATP1B1/1B3 is 65%.

As to `N#Cc1ccnc(N2C(=O)CC[C@H]2C(=O)N(c2cncc(F)c2)[C@H](C(=O)NC2CC(F)(F)C2)c2ccccc2Cl)c1` [Ivosidenib], the “effect on CYP2C19 mRNA levels” value in the data set on CYP2C19 mRNA is listed as “inconclusive”. Besides, the IC50 (commonly the concentration that gives 50% inhibition) was greater than 65 µM at OCT2; 22.8 µM against OATP1B3; 0.322 µM against OAT3 [9]; greater than 65 µM against OAT1; 19.6 µM on human P‐gp; 9.56 µM against OATP1B1. A half-maximal effect in the data set with CYP3A4 mRNA [7] (EC50) was put at 12.5 ± 9.2 µM. In addition, in the data set with CYP2C9 mRNA (human hepatocytes, 3 donors), the “CYP2C9 mRNA mean Emax” value worked out at 3.39 ± 0.63. Moreover, the EC50 (in general, the concentration that produces a half-maximal response) at 72 h with CYP2C9 mRNA (setting [13]) stood at 3.23 ± 1.04 µM; in the data set with CYP2B6 mRNA (setting [13]), 2.93 ± 0.65 µM; with CYP2C8 mRNA (setting [13]), 8.1 ± 3.3 µM. Moreover, the “CYP2B6 mRNA mean Emax” value with CYP2B6 mRNA (human hepatocytes, 3 donors) is given as 2.85 ± 1.53. Also, the “fm (fraction metabolized, CYP3A4)” value in the data set on CYP3A4 [8] is reported as 0.865. Further, in the data set on CYP3A4 [10] (500 mg ivosidenib), the “increase of mean 4β‐OHC levels” value is listed as ~ 199%. Besides, the “increase of 4β‐OHC” value with CYP3A4 [10] (after 28 days of 100 mg b.i.d. and 100–1200 mg q.d. ivosidenib) is “up to 371%”. Further, the “CYP2C8 mRNA mean Emax” value with CYP2C8 mRNA (human hepatocytes, 3 donors) was found to be 3.79 ± 1.28. Further, the “classification as CYP3A4 inducer as per regulatory guidance” value with CYP3A4 [11] was “strong inducer”. In addition, the “CYP1A2 mRNA induction” value with CYP1A2 mRNA (3 donors, 0.05-90 μM once daily 3 days) was “no significant induction”. In addition, the “CYP3A4 mRNA mean Emax” value in the data set on CYP3A4 mRNA [12] is 78.2 ± 113.

Turning to `CCC1(c2ccccc2)C(=O)NC(=O)NC1=O` [phenobarbital, reference compound], the “increase in CYP2B6 mRNA levels” value in the data set on CYP2B6 mRNA (prototypical inducer (positive control), human hepatocytes) came out at 13 ± 4.7 fold.

The values above are taken from PMC8213421 (CPT: Pharmacometrics & Systems Pharmacology, 2021).
